Test results as given in paper PMC12735921, “Evaluation of Antiproliferative Activity and Molecular Modeling Studies of Some Novel Benzimidazolone-Bridged Hybrid Compounds” (Pharmaceuticals, 2025).
Several values for one entry are separate records, joined by “and”; a condition that tells them apart may be missing. Equal entries are not always repeated.

Legend:
Type in all cases: cell-based, human
[1] = tested on: A549 cells; assay: Intracellular GSH/GSSG ratio, A549; settings: A549, IC50 concentration of compound, 48 h; H2O2 positive control; mean ± SD, n = 3
Procedure: (§1) Intracellular reduced (GSH) and oxidized (GSSG) glutathione levels were measured using the GSH/GSSG Ratio Detection Assay Kit (Cayman Chemical, Ann Arbor, MI, USA, Cat. No: 703002) according to the manufacturer’s protocol. […] After treatment, cells were washed with cold PBS and lysed with MES buffer provided in the kit.
(§2) To prevent oxidation of GSH to GSSG during processing, samples were deproteinized using the supplied metaphosphoric acid solution and neutralized accordingly. Total glutathione and GSSG levels were measured separately by adding the appropriate buffers and reagents to the wells of a 96-well plate, followed by the addition of DTNB recycling reagent and glutathione reductase. Absorbance was read at 405 nm using a microplate reader (BMG Labtech, Germany). The amount of GSH was calculated by subtracting 2 × GSSG from the total glutathione, and the GSH/GSSG ratio was used to assess intracellular redox status.

[2] = tested on: A549 cells; assay: LDH leakage assay, A549; settings: A549, IC50 concentration of compound, 48 h; H2O2 positive control; mean ± SD, n = 3
Procedure: (§3) One hundred microliters of culture medium was transferred to a new 96-well plate. One hundred microliters of LDH reaction solution was added to each well, and absorbance was measured at 490 nm using an ELISA plate reader (BMG Labtech, Ortenberg, Germany) after 30 min.

[3] = tested on: A549 cells; assay: Total oxidative status (TOS), A549; settings: A549, IC50 concentration of compound, 48 h; H2O2 250 µM positive control; mean ± SD, n = 3
Procedure: (§4) TOS were evaluated using a commercially available kit (Rel Assay Diagnostics®, Gaziantep, Turkey) according to the manufacturer’s instructions. […] The TOS assay quantifies oxidizing agents based on their ability to convert an iron (II) ion chelator complex to iron (III) ions. The results were calibrated against hydrogen peroxide (H2O2, 250 µM) as a positive control for 48 h and expressed as µmol H2O2 equivalents per liter. The analysis was performed in three independent biological replicates (n = 3).

[4] = tested on: MCF-7 cells; assay: MTT cell viability assay, MCF-7; settings: for IC50: Homo sapiens, MCF7, MTT, 48 h, mean ± SD, n = 3; for MCF-7 Selectivity Index (SI): SI = IC50 (HEK 293)/IC50 (MCF-7)
Procedure: (§5) Cell viability assay was performed on the human lung cancer (A549) (ATCC CCL-185), human breast cancer (MCF-7) (ATCC-HTB-22), cervical cancer (HeLa) (ATCC-CCL-2), and human embryonic kidney 293 (HEK293) (ATCC-CRL-1573) cell lines, which were purchased from Deutsche Sammlung von Mikroorganismen und Zellkulturen (DSMZ, Braunschweig, Germany). The cells were maintained in Dulbecco’s modified Eagle’s medium (DMEM), supplemented with 10% fetal bovine serum (FBS), 2 mM L-glutamine, 100 U/mL penicillin, and 100 mg/L streptomycin (Biochrom AG, Berlin, Germany) at 37 °C in a humidified atmosphere of 5% CO2.
(§6) The cytotoxic effect was determined by the MTT (3-(4,5-dimethyl-2-thiazolyl)-2,5-diphenyl-2H-tetrazolium bromide) cell viability assay. Cells were seeded at an initial concentration of 1 × 10^5 cells/mL in 96-well microplates. Cells were then treated with different concentrations (0.5, 5, 10, 25, 50, 100 and 200 µM) of the novel synthesized compounds for 48 h. After the incubation period, the formed formazan crystals were dissolved in dimethyl sulfoxide (DMSO), and the optical density (OD) of the compounds was measured at 570 nm using a spectrophotometer (BMG Labtech, Ortenberg, Germany). Cytotoxicity was expressed as an increase in the mean percentage of cytotoxicity relative to the unexposed control ± standard deviation (SD). […] Control values were set at 0% cytotoxicity. IC50 was calculated by fitting the data to a sigmoidal curve using a four-parameter logistic model and was presented as an average of three independent measurements. […] Doxorubicin was used as a positive control. Each sample was tested in triplicate.
(§7) To evaluate the selectivity of the tested compound(s) toward cancer cells over normal cells, the Selectivity Index (SI) was calculated using the following formula:SI = IC50 (normal cells)/IC50 (cancer cells)
(§8) An SI value greater than 2 was considered to indicate selective cytotoxicity, while values below 2 were interpreted as non-selective. Higher SI values reflect greater therapeutic potential due to reduced toxicity toward normal cells.

[5] = tested on: A549 cells; assay: Cell cycle analysis (PI staining, flow cytometry), A549; settings: A549, IC50 concentration, 48 h, mean ± SEM, n = 3
Procedure: (§9) Cell cycle distribution was assessed by propidium iodide (PI) staining and flow cytometry. HeLa, MCF-7, and A549 cells were seeded in 6-well plates at a density of 1 × 10^5 cells per well and allowed to attach overnight. […] Following exposure, both adherent and floating cells were collected, washed twice with cold phosphate-buffered saline (PBS, pH 7.4), and fixed overnight in 70% cold ethanol at 4 °C. After fixation, the cells were centrifuged and resuspended in 500 µL of PI/RNase staining solution containing 50 µg/mL PI and 100 µg/mL RNase A (Sigma-Aldrich®, St. Louis, MO, USA), followed by incubation in the dark for 30 min at 37 °C. The stained samples were analyzed using a Muse™ Cell Analyzer (Merck, Millipore, Germany) equipped with a 488 nm excitation laser and a 617 nm emission filter. A minimum of 10,000 events per sample were acquired after exclusion of debris and doublets via FSC-A vs. FSC-H gating. The DNA content histograms were generated automatically, and cell populations were expressed as percentages of G0/G1, S, and G2/M phases using the Muse™ Cell Cycle Analysis Software 1.5.0.0. All assays were conducted in triplicate biological repeats (n = 3), and results were reported as mean ± SEM.

[6] = tested on: A549 cells; assay: MTT cell viability assay, A549; settings: for IC50: Homo sapiens, A549, MTT, 48 h, mean ± SD, n = 3; for A549 Selectivity Index (SI): SI = IC50 (HEK 293)/IC50 (A549)
Procedure: as §5, §6, §7, §8

[7] = tested on: HEK 293 cells; assay: MTT cell viability assay, non-cancerous HEK 293; settings: Homo sapiens, HEK293, 48 h, mean ± SD, n = 3
Procedure: as §5
The cytotoxic effect was determined by the MTT (3-(4,5-dimethyl-2-thiazolyl)-2,5-diphenyl-2H-tetrazolium bromide) cell viability assay. Cells were seeded at an initial concentration of 1 × 10^5 cells/mL in 96-well microplates. Cells were then treated with different concentrations (0.5, 5, 10, 25, 50, 100 and 200 µM) of the novel synthesized compounds for 48 h. After the incubation period, the formed formazan crystals were dissolved in dimethyl sulfoxide (DMSO), and the optical density (OD) of the compounds was measured at 570 nm using a spectrophotometer (BMG Labtech, Ortenberg, Germany). Cytotoxicity was expressed as an increase in the mean percentage of cytotoxicity relative to the unexposed control ± standard deviation (SD). […] Control values were set at 0% cytotoxicity. IC50 was calculated by fitting the data to a sigmoidal curve using a four-parameter logistic model and was presented as an average of three independent measurements. […] Each sample was tested in triplicate.

[8] = tested on: HeLa cells; assay: MTT cell viability assay, HeLa; settings: for IC50: Homo sapiens, HeLa, MTT, 48 h, mean ± SD, n = 3; for HeLa Selectivity Index (SI): SI = IC50 (HEK 293)/IC50 (HeLa)
Procedure: as §5, §6, §7, §8

[9] = tested on: HeLa cells; assay: Total oxidative status (TOS), HeLa; settings: IC50 concentration of compound, 48 h, H2O2 250 µM positive control, mean ± SD, n = 3
Procedure: as §4

[10] = tested on: HeLa cells; assay: LDH leakage assay, HeLa; settings: IC50 concentration of compound, 48 h, H2O2 positive control, mean ± SD, n = 3
Procedure: as §3

[11] = tested on: HeLa cells; assay: Intracellular GSH/GSSG ratio, HeLa; settings: IC50 concentration of compound, 48 h, H2O2 positive control, mean ± SD, n = 3
Procedure: as §1, §2

[12] = tested on: HeLa cells; assay: Cell cycle analysis (PI staining, flow cytometry), HeLa; settings: IC50 concentration, 48 h, mean ± SEM, n = 3
Procedure: as §9

[13] = tested on: MCF-7 cells; assay: Cell cycle analysis (PI staining, flow cytometry), MCF-7; settings: MCF-7, IC50 concentration, 48 h, mean ± SEM, n = 3
Procedure: as §9

[14] = tested on: MCF-7 cells; assay: Intracellular GSH/GSSG ratio, MCF-7; settings: MCF-7, IC50 concentration of compound, 48 h; H2O2 positive control; mean ± SD, n = 3
Procedure: as §1, §2

[15] = tested on: MCF-7 cells; assay: LDH leakage assay, MCF-7; settings: MCF-7, IC50 concentration of compound, 48 h; H2O2 positive control; mean ± SD, n = 3
Procedure: as §3

[16] = tested on: MCF-7 cells; assay: Total oxidative status (TOS), MCF-7; settings: MCF-7, IC50 concentration of compound, 48 h; H2O2 250 µM positive control; mean ± SD, n = 3
Procedure: as §4

SMILES: O=c1[nH]c2cc(Cl)c(Cl)cc2[nH]1 [Compound 1, 5,6-Dichloro-1,3-dihydro-2H-benzimidazol-2-one]
- GSH/GSSG [1]: 13.5 ± 1.3 nmol/mg Protein and 13.5 ± 1.3 ^a,b nmol/mg Protein
- LDH [2]: 19.8 ± 1.7 µU/mL and 19.8 ± 1.7 ^a,b µU/mL
- TOS [3]: 6.1 ± 0.4 µmol H2O2 eq/L and 6.1 ± 0.4 ^a,b µmol H2O2 eq/L
- IC50 [4]: 41.3 ± 2.4 µM
- MCF-7 Selectivity Index (SI) [4]: 1.46
- cells in G0/G1 phase [5]: 57.2 ± 1.9%
- cells in G2/M phase [5]: 20.1 ± 1.5%
- cells in S phase [5]: 22.7 ± 1.5%
- IC50 [6]: 29.5 ± 1.7 µM
- A549 Selectivity Index (SI) [6]: 2.03
- IC50 [7]: 60.1 ± 3.47 µM
- IC50 [8]: 31.6 ± 1.82 µM
- HeLa Selectivity Index (SI) [8]: 1.9

SMILES: O=C(Cn1c(=O)n(CC(=O)NNC(=O)c2cc3cc(Cl)ccc3oc2=O)c2cc(Cl)c(Cl)cc21)NNC(=O)c1cc2cc(Cl)ccc2oc1=O [Compound 12b, N′,N′′′ -(2,2′-(5,6-dichloro-2-oxo-1H-benzo[d]imidazole-1,3(2H)-diyl)bis(acetyl))bis(6-chloro-2-oxo-2H-chromene-3-carbohydrazide)]
- TOS [9]: 8.1 ± 0.6 µmol H2O2 eq/L and 8.1 ± 0.6 ^a,b µmol H2O2 eq/L
- IC50 [4]: 25.8 ± 1.5 µM
- MCF-7 Selectivity Index (SI) [4]: 1.9
- LDH [10]: 28.5 ± 2.3 µU/mL and 28.5 ± 2.3 ^a,b µU/mL
- IC50 [6]: 35.2 ± 2 µM
- A549 Selectivity Index (SI) [6]: 1.39
- IC50 [7]: 49.1 ± 2.83 µM
- GSH/GSSG [11]: 10.1 ± 1.1
- cells in G0/G1 phase [12]: 41.0 ± 2.1%
- cells in G2/M phase [12]: 35.0 ± 1.7%
- cells in S phase [12]: 24.0 ± 1.4%
- IC50 [8]: 13.6 ± 0.78 µM
- HeLa Selectivity Index (SI) [8]: 3.61

SMILES: O=C(Cn1c(=O)n(CC(=O)NNC(=O)c2cc3cc(Cl)cc(Cl)c3oc2=O)c2cc(Cl)c(Cl)cc21)NNC(=O)c1cc2cc(Cl)cc(Cl)c2oc1=O [Compound 12d, N′,N′′′ -(2,2′-(5,6-dichloro-2-oxo-1H-benzo[d]imidazole-1,3(2H)-diyl)bis(acetyl))bis(6,8-Dichloro-2-oxo-2H-chromene-3-carbohydrazide)]
- GSH/GSSG [1]: 10.1 ± 0.9 nmol/mg Protein and 10.1 ± 0.9 ^a,b nmol/mg Protein
- LDH [2]: 27.3 ± 2.2 µU/mL and 27.3 ± 2.2 ^a,b µU/mL
- TOS [3]: 7.9 ± 0.6 µmol H2O2 eq/L and 7.9 ± 0.6 ^a,b µmol H2O2 eq/L
- TOS [9]: 8.4 ± 0.6 µmol H2O2 eq/L and 8.4 ± 0.6 ^a,b µmol H2O2 eq/L
- IC50 [4]: 21.9 ± 1.26 µM
- MCF-7 Selectivity Index (SI) [4]: 1.42
- LDH [10]: 29.7 ± 2.4 µU/mL and 29.7 ± 2.4 ^a,b µU/mL
- cells in G0/G1 phase [5]: 62.1 ± 2.1%
- cells in G2/M phase [5]: 19.0 ± 1.5%
- cells in S phase [5]: 18.9 ± 1.4%
- IC50 [6]: 15.5 ± 0.89 µM
- A549 Selectivity Index (SI) [6]: 2.01
- IC50 [7]: 31.2 ± 1.8 µM
- GSH/GSSG [11]: 9.7 ± 1.0
- cells in G0/G1 phase [12]: 40.1 ± 2.0%
- cells in G2/M phase [12]: 36.4 ± 1.8%
- IC50 [8]: 12.8 ± 0.73 µM
- HeLa Selectivity Index (SI) [8]: 2.4

SMILES: O=c1n(Cc2nnc(S)o2)c2cc(Cl)c(Cl)cc2n1Cc1nnc(S)o1 [Compound 7, 5,6-Dichloro-1,3-bis((5-mercapto-1,3,4-oxadiazol-2-yl)methyl)-1H-benzo[d]imidazol-2(3H)-one]
- TOS [9]: 8.6 ± 0.7 µmol H2O2 eq/L and 8.6 ± 0.7 ^a,b µmol H2O2 eq/L
- IC50 [4]: 19.1 ± 1.1 µM
- MCF-7 Selectivity Index (SI) [4]: 2.01
- cells in G0/G1 phase [13]: 69.0 ± 2.0%
- cells in G2/M phase [13]: 13.8 ± 1.2%
- cells in S phase [13]: 17.2 ± 1.3%
- LDH [10]: 30.9 ± 2.7 µU/mL and 30.9 ± 2.7 ^a,b µU/mL
- GSH/GSSG [14]: 11.3 ± 1.0 nmol/mg Protein and 11.3 ± 1.0 ^a,b nmol/mg Protein
- LDH [15]: 25.3 ± 2.0 µU/mL and 25.3 ± 2.0 ^a,b µU/mL
- IC50 [6]: 27.4 ± 1.58 µM
- A549 Selectivity Index (SI) [6]: 1.4
- TOS [16]: 7.6 ± 0.6 µmol H2O2 eq/L and 7.6 ± 0.6 ^a,b µmol H2O2 eq/L
- IC50 [7]: 38.5 ± 2.2 µM
- GSH/GSSG [11]: 9.4 ± 1.0
- cells in G0/G1 phase [12]: 38.4 ± 2.1%
- cells in G2/M phase [12]: 38.4 ± 1.9%
- cells in S phase [12]: 23.2 ± 1.5%
- IC50 [8]: 10.6 ± 0.61 µM
- HeLa Selectivity Index (SI) [8]: 3.63
